In assay [1] the test system is E. faecium CL 4931 (VanA). Briefly: microbe, parasite or virus in culture. Type of assay: cell-based. Also on record: CL4931 (in vitro testing): unit not given here. The note with it: Tables 7 and 8; unit not given. From the text:
(§1) National Committee for Clinical Laboratory Standards (NCCLS) guidelines [Methods for Dilution Antimicrobial Susceptibility Tests for Bacteria that Grow Aerobically-Fourth Edition; Approved Standard (NCCLS Document M7-A4, January 1997)] are used to establish the assay, although variations are made to optimize the published method according to the specific needs of the present investigation.
(§2) The test panel currently includes eight enterococci and 13 staphylococci, which are selected based upon their antibiotic susceptibility profiles. The methicillin-sensitive Staphylococcus aureus (MSSA) strain MB2985 (Smith isolate) is used to assesses the potential for serum protein binding of the compounds. The paired Gram-negative strains ASP #49 (envA-) and ASP #50 (envA+) (M. Salvatore/N. Lee) are included to judge membrane effects. Table 3 presents a detailed description of the strains included in the panel, including some of the sources of the strains of bacteria.
(§3) The glycopeptide antibiotic teicoplanin is included whenever possible.
(§4) TSB, containing 10% HS* for vancomycin intermediate S. aurcus/methicillin-resistant S. aureus (VISA/MRSA) strains, is inoculated from an appropriate source (frozen broth or agar slant) and grown approximately 17 hr at 35° C. with shaking at 220 rpm. Cultures are grown in tubes with a volume of 5 ml for enterococci and 2 ml for all other strains.
(§5) Four milliliter (4 ml) overnight culture is added to 36 ml physiological saline to obtain tenfold dilutions (enterococci). Overnight culture (0.4 ml) is added to 39.6 ml saline to obtain 100-fold dilutions (all strains except enterococci). Diluted cultures are maintained on ice until time of inoculation of test plates.
(§6) The number of CFU/mL is determined on BHI agar plates, although this is not done routinely because titers of overnight cultures are relatively constant. The test media include: • BHI for enterococci and VISA/MRSA; • MH II (i.e., cation-adjusted Mueller-Hinton broth) for MRS, MSS and E. coli.; • MH II+HSA for MSSA is prepared as follows: • a. 2×MHII+86mg/ml HSA • b. Dissolve 4.3 g HSA in 50 ml autoclaved 2x MH II. • c. pH to 7.0 by adding 2M MOPS, sodium. • d. Filter sterilize using 0.22 μm Coming cellulose acetate filter, used because of reported low protein binding. • e. 1×MH II+43 mg/ml HSA • f. Dilute the 2×medium twofold and filter as above. 5.8.6. Preparation of Test Plates
(§7) Using a Denley liquid handling system (or similar automatic device), 100 μ1×medium is added to each well in columns 2-12 of a 96-well microtiter dish. Using a multichannel pipettor, 100 μl 2×medium is added to each well in column 1. Plates may be filled on the day prior to assay, wrapped in plastic bags and refrigerated.
(§8) Vancomycin, Schering 29482, and teicoplanin are prepared on a weight per volume basis using 10 mM 3-(N-morpholino)propane-sulfonic acid (MOPS) buffer pH 7. Test compounds are received in solution in appropriate solvent (typically as 1 mg/ml in DMSO) or are dissolved in appropriate solvent prior to further dilution in 10 mM MOPS buffer, ph7. Consistent with NCCLS guidelines, antibiotics are handled aseptically but are not otherwise sterilized.
(§9) 100 μl appropriately diluted antibiotic solution is added to the first well of the designated row of the 96-well microtiter dish and serially diluted by twofold across the row using the Denley liquid handling system. With the aid of a Dynatech NEC 2000 inoculator, each well of the microtiter dish is inoculated with 1.5 μl diluted overnight culture, yielding approximately 1-5×10^6 CFU/ml for enterococci and approximately 3-7×10^5 CFU/ml for all other strains. Dishes are placed in stacks of no more than five, wrapped in plastic bags and incubated at 35° C. • Indication of result(s) type (% INH, IC50, Zone size, etc.) • MIC=minimum inhibitory concentration ps 5.8.9. Interpretation of the Results on the Basis of Activity […]

The test system of assay [2] is E. faecalis CL 4877 (VanB). Briefly: microbe, parasite or virus in culture. The note with it: Tables 7 and 8; unit not given. Type of assay: cell-based. Also on record: CL4877 (in vitro testing): unit not given here.
Text: as §1, §2, §3, §4, §5, §6, §7, §8, §9

Assay [3] concerns CL 4931, CL 5053, CL 5242 and CL 4877. Type of assay: cell-based, E. faecium, E. faecalis. Set-up: unit not given here. The following applies: mean of CL4931, CL5053, CL5242, CL4877; unit not given.
Text: as §1, §2, §3, §4, §5, §6, §7, §8, §9

Assay [4] deals with E. faecium CL 5242 (VanA). Briefly: microbe, parasite or virus in culture. It counts as cell-based. Set-up: CL5242 (in vitro testing): unit not given here. The following applies: Tables 7 and 8; unit not given.
Text: as §1, §2, §3, §4, §5, §6, §7, §8, §9

Assay [5] concerns E. faecium CL 5053 (VanA). Briefly: microbe, parasite or virus in culture. Also on record: CL5053 (in vitro testing): unit not given here. The following applies: Tables 7 and 8; unit not given. Type of assay: cell-based.
Text: as §1, §2, §3, §4, §5, §6, §7, §8, §9

Here are results for twelve compounds from patent US6841661B2, “Glycopeptide antibacterial compounds, compositions containing same and methods of using same” (Princeton Univerisity, priority 1999, dated 2005).

In the case of `CNC(CC(C)C)C(=O)NC1C(=O)NC(CC(N)=O)C(=O)NC2C(=O)NC3C(=O)NC(C(=O)NC(C(=O)O)c4cc(O)cc(O)c4-c4cc3ccc4O)C(O)c3ccc(c(Cl)c3)Oc3cc2cc(c3OC2OC(CNCC(C)C)C(O)C(O)C2OC2CC(C)(NCc3ccc(OCc4ccc(Cl)c(Cl)c4)cc3)C(O)C(C)O2)Oc2ccc(cc2Cl)C1O` (stereo not drawn) [Compound 159], the “CL4931 (in vitro testing)” value in assay [1] turned out to be 16. Also, in assay [2], the “CL4877 (in vitro testing)” value worked out at 4. This compound also had a Mean in assay [3] of 10.0. Further, in assay [4], the “CL5242 (in vitro testing)” value is given as 4. Further, the “CL5053 (in vitro testing)” value in assay [5] is listed as 16.
As to `CNC(CC(C)C)C(=O)NC1C(=O)NC(CC(N)=O)C(=O)NC2C(=O)NC3C(=O)NC(C(=O)NC(C(=O)O)c4cc(O)cc(O)c4-c4cc3ccc4O)C(O)c3ccc(c(Cl)c3)Oc3cc2cc(c3OC2OC(CNCCCN3CCCC3)C(O)C(O)C2OC2CC(C)(NCc3ccc(OCc4ccc(Cl)c(Cl)c4)cc3)C(O)C(C)O2)Oc2ccc(cc2Cl)C1O` (stereo not drawn) [Compound 160], in assay [1], the “CL4931 (in vitro testing)” value was 16. Also, the “CL4877 (in vitro testing)” value in assay [2] is 16. The same compound showed a Mean in assay [3] of 13.0. Besides, the “CL5242 (in vitro testing)” value in assay [4] stood at 4. Also, in assay [5], the “CL5053 (in vitro testing)” value came to 16.
`CNC(CC(C)C)C(=O)NC1C(=O)NC(CC(N)=O)C(=O)NC2C(=O)NC3C(=O)NC(C(=O)NC(C(=O)O)c4cc(O)cc(O)c4-c4cc3ccc4O)C(O)c3ccc(c(Cl)c3)Oc3cc2cc(c3OC2OC(CNCCCN)C(O)C(O)C2OC2CC(C)(NCc3ccc(OCc4ccc(Cl)c(Cl)c4)cc3)C(O)C(C)O2)Oc2ccc(cc2Cl)C1O` (stereo not drawn) [Compound 161]: in assay [1], the “CL4931 (in vitro testing)” value is given as 16. Moreover, in assay [2], the “CL4877 (in vitro testing)” value is recorded as 16. The Mean in assay [3] was 13.0. Moreover, the “CL5242 (in vitro testing)” value in assay [4] amounted to 4. Also, the “CL5053 (in vitro testing)” value in assay [5] amounted to 16.
Take `CNC(CC(C)C)C(=O)NC1C(=O)NC(CC(N)=O)C(=O)NC2C(=O)NC3C(=O)NC(C(=O)NC(C(=O)O)c4cc(O)cc(O)c4-c4cc3ccc4O)C(O)c3ccc(c(Cl)c3)Oc3cc2cc(c3OC2OC(CN3CCCC3)C(O)C(O)C2OC2CC(C)(NCc3ccc(OCc4ccc(Cl)c(Cl)c4)cc3)C(O)C(C)O2)Oc2ccc(cc2Cl)C1O` (stereo not drawn) [Compound 163]: the “CL4931 (in vitro testing)” value in assay [1] is 16. The “CL4877 (in vitro testing)” value in assay [2] worked out at 2. In assay [3], this compound came in with a Mean of 13.5. The “CL5242 (in vitro testing)” value in assay [4] is 4. Also, in assay [5], the “CL5053 (in vitro testing)” value was found to be 32.
In the same order, the values of `CNC(CC(C)C)C(=O)NC1C(=O)NC(CC(N)=O)C(=O)NC2C(=O)NC3C(=O)NC(C(=O)NC(C(=O)O)c4cc(O)cc(O)c4-c4cc3ccc4O)C(O)c3ccc(c(Cl)c3)Oc3cc2cc(c3OC2OC(CNC3CC3)C(O)C(O)C2OC2CC(C)(NCc3ccc(OCc4ccc(Cl)c(Cl)c4)cc3)C(O)C(C)O2)Oc2ccc(cc2Cl)C1O` (stereo not drawn) [Compound 165] are 16, 16, 14.0, 8 and 16.
In the same order, the values of `CNC(CC(C)C)C(=O)NC1C(=O)NC(CC(N)=O)C(=O)NC2C(=O)NC3C(=O)NC(C(=O)NC(C(=O)O)c4cc(O)cc(O)c4-c4cc3ccc4O)C(O)c3ccc(c(Cl)c3)Oc3cc2cc(c3OC2OC(CN3CCC(N(C)C)C3)C(O)C(O)C2OC2CC(C)(NCc3ccc(OCc4ccc(Cl)c(Cl)c4)cc3)C(O)C(C)O2)Oc2ccc(cc2Cl)C1O` (stereo not drawn) [Compound 166] are 8, 32, 14.5, 2 and 16.
For `CNC(CC(C)C)C(=O)NC1C(=O)NC(CC(N)=O)C(=O)NC2C(=O)NC3C(=O)NC(C(=O)NC(C(=O)O)c4cc(O)cc(O)c4-c4cc3ccc4O)C(O)c3ccc(c(Cl)c3)Oc3cc2cc(c3OC2OC(CN3CCNCC3)C(O)C(O)C2OC2CC(C)(NCc3ccc(OCc4ccc(Cl)c(Cl)c4)cc3)C(O)C(C)O2)Oc2ccc(cc2Cl)C1O` (stereo not drawn) [Compound 167], in that order: 8, 32, 15.0, 4 and 16.
For the compound `CNC(CC(C)C)C(=O)NC1C(=O)NC(CC(N)=O)C(=O)NC2C(=O)NC3C(=O)NC(C(=O)NC(C(=O)O)c4cc(O)cc(O)c4-c4cc3ccc4O)C(O)c3ccc(c(Cl)c3)Oc3cc2cc(c3OC2OC(CN3CCCCC3)C(O)C(O)C2OC2CC(C)(NCc3ccc(OCc4ccc(Cl)c(Cl)c4)cc3)C(O)C(C)O2)Oc2ccc(cc2Cl)C1O` (stereo not drawn) [Compound 168], the “CL4931 (in vitro testing)” value in assay [1] is listed as 32. In addition, the “CL4877 (in vitro testing)” value in assay [2] is recorded as 1. The same compound came in with a Mean in assay [3] of 18.3. For the same compound, the “CL5242 (in vitro testing)” value in assay [4] is on record as 8. Also, in assay [5], the “CL5053 (in vitro testing)” value amounted to 16.
On to `CNC(CC(C)C)C(=O)NC1C(=O)NC(CC(N)=O)C(=O)NC2C(=O)NC3C(=O)NC(C(=O)NC(C(=O)O)c4cc(O)cc(O)c4-c4cc3ccc4O)C(O)c3ccc(c(Cl)c3)Oc3cc2cc(c3OC2OC(CN3CCOCC3)C(O)C(O)C2OC2CC(C)(NCc3ccc(OCc4ccc(Cl)c(Cl)c4)cc3)C(O)C(C)O2)Oc2ccc(cc2Cl)C1O` (stereo not drawn) [Compound 169], for which the “CL4931 (in vitro testing)” value in assay [1] is listed as 32. Further, in assay [2], the “CL4877 (in vitro testing)” value was determined as 1. Besides, in assay [3], the Mean stood at 18.3. Moreover, in assay [4], the “CL5242 (in vitro testing)” value worked out at 8. Also, the “CL5053 (in vitro testing)” value in assay [5] was 32.
Take `CNC(CC(C)C)C(=O)NC1C(=O)NC(CC(N)=O)C(=O)NC2C(=O)NC3C(=O)NC(C(=O)NC(C(=O)O)c4cc(O)cc(O)c4-c4cc3ccc4O)C(O)c3ccc(c(Cl)c3)Oc3cc2cc(c3OC2OC(CN3CCC(N(C)C)CC3)C(O)C(O)C2OC2CC(C)(NCc3ccc(OCc4ccc(Cl)c(Cl)c4)cc3)C(O)C(C)O2)Oc2ccc(cc2Cl)C1O` (stereo not drawn) [Compound 170]: the “CL4931 (in vitro testing)” value in assay [1] stood at 16. Moreover, the “CL4877 (in vitro testing)” value in assay [2] stood at 32. The same compound returned a Mean in assay [3] of 22.0. Further, in assay [4], the “CL5242 (in vitro testing)” value came to 8. Further, the “CL5053 (in vitro testing)” value in assay [5] amounted to 32.
On to `CNC(CC(C)C)C(=O)NC1C(=O)NC(CC(N)=O)C(=O)NC2C(=O)NC3C(=O)NC(C(=O)NC(C(=O)O)c4cc(O)cc(O)c4-c4cc3ccc4O)C(O)c3ccc(c(Cl)c3)Oc3cc2cc(c3OC2OC(CN)C(O)C(O)C2OC2CC(C)(NCc3ccc(OCc4ccc(Cl)cc4)cc3)C(O)C(C)O2)Oc2ccc(cc2Cl)C1O` (stereo not drawn) [Compound 171], for which the “CL4931 (in vitro testing)” value in assay [1] was 4. For the same compound, the “CL4877 (in vitro testing)” value in assay [2] came out at 16. Also, the Mean in assay [3] was found to be 7.25. Also, the “CL5242 (in vitro testing)” value in assay [4] is recorded as 1. Moreover, the “CL5053 (in vitro testing)” value in assay [5] was 8.
For `CNC(CC(C)C)C(=O)NC1C(=O)NC(CC(N)=O)C(=O)NC2C(=O)NC3C(=O)NC(C(=O)NC(C(=O)O)c4cc(O)cc(O)c4-c4cc3ccc4O)C(O)c3ccc(c(Cl)c3)Oc3cc2cc(c3OC2OC(CN)C(O)C(O)C2OC2CC(C)(NCc3ccc(OCc4cccc(Cl)c4)cc3)C(O)C(C)O2)Oc2ccc(cc2Cl)C1O` (stereo not drawn) [Compound 172], in that order: 16, greater than 16, 12.5, 2 and 16.
